Reference: ChEMBL document CHEMBL1151115, “Brianthein V, a New Cytotoxic and Antiviral Diterpene Isolated from Briareum asbestinum” (J Nat Prod, 1988)
Activity calls are given as the source filed them. No cut-off for these calls is given here.

What was measured:
Murine hepatitis virus [1] = assay: Antiviral activity against mouse coronavirus at 10 ug; type: functional, organism-based
Murine hepatitis virus [2] = assay: Antiviral activity against mouse coronavirus at 80 ug/ml; type: functional, organism-based
Human alphaherpesvirus 1 [3] = assay: Antiviral activity against herpes simplex virus 1 at 80 ug/ml; type: functional, organism-based
P388 [4] = assay: Cytotoxicity against mouse P388 cells at 10 ug/ml; type: functional, cell-based
P388 [5] = assay: Cytotoxicity against mouse P388 cells at 13 ug/ml; type: functional, cell-based
Murine hepatitis virus [6] = assay: Antiviral activity against mouse coronavirus at 50 ug/ml; type: functional, organism-based
Murine hepatitis virus [7] = assay: Antiviral activity against mouse coronavirus at 400 ug/ml; type: functional, organism-based
P388 [8] = assay: Cytotoxicity against mouse P388 cells at 0.1 ug; type: functional, cell-based
Human alphaherpesvirus 1 [9] = assay: Antiviral activity against herpes simplex virus 1 at 20 ug; type: functional, organism-based

SMILES: NC(=O)c1ncn([C@@H]2O[C@H](CO)[C@@H](O)[C@H]2O)n1
- Activity (Murine hepatitis virus [1]): Active

SMILES: C=C1/C=C\[C@H](OC(C)=O)[C@]2(C)[C@H]([C@@H](C)[C@H](OC(C)=O)[C@@H]3O[C@@H]32)[C@H](OC(C)=O)[C@]2(O)[C@@H](C)C(=O)O[C@H]2[C@H]1Cl
- Activity (Murine hepatitis virus [2]): Active
- Activity (Human alphaherpesvirus 1 [3]): Active
- Activity (P388 [4]): Active

SMILES: C=C1/C=C\[C@H](OC(=O)CCC)[C@]2(C)[C@H]([C@@H](C)[C@H](OC(=O)CCC)[C@@H]3O[C@@H]32)[C@H](OC(C)=O)[C@]2(O)[C@@H](C)C(=O)O[C@H]2[C@H]1Cl
- Activity (P388 [5]): Active
- Activity (Murine hepatitis virus [6]): Active

SMILES: C=C1/C=C\[C@H](OC(=O)CCC)[C@]2(C)[C@H]([C@@H](C)[C@H](OC(C)=O)[C@@H]3O[C@@H]32)[C@H](OC(C)=O)[C@]2(O)[C@@H](C)C(=O)O[C@H]2[C@H]1Cl
- Activity (Murine hepatitis virus [7]): Active

SMILES: O=c1[nH]cc(F)c(=O)[nH]1
- Activity (P388 [8]): Active

SMILES: Nc1ncnc2c1ncn2[C@@H]1O[C@H](CO)[C@@H](O)[C@@H]1O
- Activity (Human alphaherpesvirus 1 [9]): Active
